Test results taken from US8501215B2, “Injectable multimodal polymer depot compositions and uses thereof” (priority 2002, dated 2013).
Counter-ions that a name gives are not always drawn.

Legend:
[1] = Saturation concentration of bupivacaine hydrochloride in de-ionized water; type: physicochemical
Procedure: Bupivacaine hydrochloride (Sigma-Aldrich Corporation, St. Louis, Mo.) was dissolved in de-ionized (DI) water at a concentration of 40 mg/ml (saturation). A calculated amount of sodium hydroxide (in the form of 1 N solution) was added to the solution and the pH of the final mixtures was adjusted to ten to precipitate the Bupivacaine base. The precipitated product was filtered, and further washed with DI water for at least three times. The precipitated product was dried at ca. 40° C. in vacuum for 24 hours.

[2] = cited from earlier work

Structure (SMILES)	concentration in de-ionized (DI) water (saturation) [1]	reported solubility in water [2]
CCCCN1CCCCC1C(=O)Nc1c(C)cccc1C (centres unmarked) [Bupivacaine hydrochloride]	40000 µg/mL	
CC(=O)OCC(COC(C)=O)OC(C)=O [triacetin]		7.17 grams in 100 ml of water
